Test results published in ChEMBL document CHEMBL1671770, “Small molecule inhibition of protein depalmitoylation as a new approach towards downregulation of oncogenic Ras signalling” (Bioorg Med Chem, 2011).

Target: Acyl-protein thioesterase 1 (Homo sapiens, UniProt O75608)
Assay: Inhibition of APT1

Acyl-protein thioesterase 1, sequence (O75608 whole entry): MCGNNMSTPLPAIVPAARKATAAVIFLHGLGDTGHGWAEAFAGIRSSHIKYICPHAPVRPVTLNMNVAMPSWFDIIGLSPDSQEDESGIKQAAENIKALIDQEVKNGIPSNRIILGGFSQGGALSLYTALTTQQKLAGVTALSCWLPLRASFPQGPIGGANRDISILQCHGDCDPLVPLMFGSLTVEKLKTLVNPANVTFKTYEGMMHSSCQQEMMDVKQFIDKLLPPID

CCCCCCCCCC[C@@H]1C(=O)O[C@H]1CCc1ccc(OC)c(OC)c1 [PALMOSTATIN B]
IC50: 670 nM
